Experimental data published in patent publication US4997834A, “Trans-4-amino(alkyl)-1-pyridylcarbamoylcyclohexane compounds and pharmaceutical use thereof” (priority 1988, dated 1991).

Key:
ddY strain mice = assay: Acute toxicity, intraperitoneal, mice; type: in vivo
Excerpt: EXPERIMENT OF ACUTE TOXICITY
Each of test compounds of A, B and C was intraperitoneally administered to ddY strain mice.

left coronary artery = assay: Effect on coronary blood flow (perfused left coronary artery, anesthetized dogs); type: in vivo, adult mongrel dogs; conditions: pentobarbital-anesthetized; for Effect of coronary blood flow, ED50 (in artery): dose increasing coronary blood flow by half of the effect of 3 μg intracoronary nifedipine, test dose 10-300 μg into coronary artery; for Effect of coronary blood flow, T1/2 (duration of effects): injection into coronary artery, 10-300 μg
Method: PHARMACOLOGICAL EXPERIMENT 2: EFFECT ON CORONARY BLOOD FLOW
Groups of 2 to 3 adult mongrel dogs were anesthetized with the intraveneous administration of 30 mg/kg of body weight of sodium pentobarbital.
According to the method of Yago et. al. described in Folia Pharmacologica Japonica, vol. 57, p.380 (1961), the left coronary artery was perfused and its blood flow volume was measured. Test compound was injected into the coronary artery at a […] of 10-300 μg. The effects of test compound on coronary blood flow were expressed as ED50 (μg), a dose required to increase the coronary blood flow by a half of the effects of the coronary-artery injection of 3 μg of nifedipine [Dimethyl 2,6-dimethyl-4-(2-nitrophenyl)-1,4-dihydropyridine-3,5-dicarboxylate]. Each of half-life (T 1/2, minute) was measured as the duration of effects.

right vertebral artery = assay: Effect on vertebral blood flow (perfused right vertebral artery, anesthetized dogs); type: in vivo, adult mongrel dogs; conditions: doses 10-100 μg (A); for Effect of vertebral blood flow, ED100: dose giving 100% of the maximum blood flow increase by 100 μg papaverine hydrochloride, 30-100 μg (B, C) into vertebral artery; for Effect of vertebral blood flow, T1/2 (duration of the effects): injection into vertebral artery, 30-100 μg (B, C)
Method: PHARMACOLOGICAL EXPERIMENT 3: EFFECT ON VERTEBRAL BLOOD FLOW
Groups of two adult mongrel dogs were anesthetized with the intraveneous administration of 25 mg/kg of body weight of sodium pentobarbital.
The right vertebral artery was perfused and the blood flow volume was measured. Test compound was injected in the vertebral artery. The percentage of maximum increase of blood flow by the injection of 100 μg of papaverine hydrochloride (1-[(3,4-dimethoxyphenyl)methyl]-6,7-dimethoxyisoquinoline hydrochloride) in vertebral artery was taken as 100% . The effects of test compound on vertebral artery were expressed as ED100 (μg), a dose required to obtain 100% of the increase of blood flow. Each of half-life (T 1/2, minute) was measured as the duration of the effects.

[1] = test system: spontaneously hypertensive rats; assay: Antihypertensive effect: systolic blood pressure by tail cuff method in spontaneously hypertensive rats; type: in vivo, male spontaneously hypertensive rats; conditions: 30 mg/kg orally, measured three hours after administration
Method: PHARMACOLOGICAL EXPERIMENT 1: ANTIHYPERTENSIVE EFFECT
Each of 30 mg/kg of test compounds dissolving in 0.5% of hydroxypropyl-methylcellurose was orally administered to groups of 3 to 5 male spontaneously hypertensive rats weighing 350-450 g. Three hours after the administration, the systolic blood pressure was measured by tail cuff method and antihypertensive effects are examined.

[2] = intraperitoneal dose of 100 mg/kg, five days after administration

Row | Compound | Survival of mice (ddY strain mice; mouse, in vivo, ip, 100 mg/kg) | Effect of coronary blood flow, ED50 (in artery) (left coronary artery) | Effect of coronary blood flow, T1/2 (duration of effects) (left coronary artery) | Effect of vertebral blood flow, ED100 (right vertebral artery) | Effect of vertebral blood flow, T1/2 (duration of the effects) (right vertebral artery) | Maximum lowering value of systolic blood pressure [1] | Survival of mice (ddY strain mice; [2])
1 | CC(N)[C@H]1CC[C@H](C(=O)Nc2ccncc2)CC1 (relative stereo) [Test Compound C, Trans-4-(1-aminoethyl)-1-(4-pyridylcarbamoyl)cyclohexane] | All mice survived | 34 µg | 3.0 min | 58 µg | 3.0 min | -52 mmHg | 
2 | C[C@H]1C[C@H](CN)CC[C@H]1C(=O)Nc1ccncc1 (relative stereo) [Test Compound B, Trans-4-aminomethyl-cis-2-methyl-1-(4-pyridylcarbamoyl)cyclohexane] |  | 35 µg | 4.0 min | 74 µg | 4.4 min | -44 mmHg | All mice survived
3 | NC[C@H]1CC[C@H](C(=O)Nc2ccncc2)CC1 [Test Compound A, Trans-4-aminomethyl-1-(4-pyridylcarbamoyl)cyclohexane] |  | 56 µg | 1.7 min | 35 µg | 2.1 min |  | All mice survived
